Assay results published in US9447028B2, “Therapeutic aryl-amido-aryl compounds and their use” (King's College London, priority 2009, dated 2016).

Legend:
Type in all cases: cell-based
[1] = molecular target: T1, RARβ (Homo sapiens, UniProt P10826); assay: Transactivation assay for RAR beta (gal4-RAR fusion, luciferase reporter, COS-7 cells); conditions: ratio of test compound EC50 to that of atRA; inactive = no agonist action at the highest concentration tested
T1 construct: gal4 (fusion partner); expressed in transfected cells; host or cells: COS-7
T1 sequence (P10826 183-417 limits assumed): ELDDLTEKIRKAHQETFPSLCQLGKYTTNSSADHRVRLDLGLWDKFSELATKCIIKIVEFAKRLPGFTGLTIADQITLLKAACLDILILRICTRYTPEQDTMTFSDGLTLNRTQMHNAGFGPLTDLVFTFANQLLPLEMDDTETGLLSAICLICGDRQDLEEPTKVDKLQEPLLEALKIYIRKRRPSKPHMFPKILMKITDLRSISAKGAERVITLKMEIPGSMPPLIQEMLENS
Procedure: (§1) Transcriptional transactivation assays were performed with gal4 fusion receptor constructs, created using each of the RAR ligand binding domains, co-transfected with the pFR-luc (Stratagene™) reporter construct in COS-7 cells.
(§2) Briefly, on day 1, 96 well plates were seeded with 8000 cells per well then left to recover overnight. On day 2, the cells were co-transfected with 100 ng of reporter plasmid and 10 ng of the appropriate receptor plasmid per well using lipofectamine (Invitrogen™). On day 3, the lipofectamine containing media was replaced by a DMEM without phenol red, followed by the addition of test compound dissolved in 1 μL of DMSO to each well's 100 μL total volume. Finally, on day 4, the cells were lysed and their luciferase substrate was provided by the BrightGlo™ reagent (Promega™), the plates were then read on the MicroBeta TriLux™ (Perkin Elmer™).
(§3) Where replicate data has been generated, the data are quoted as a ratio of the mean EC50 from the separate experiments.

[2] = molecular target: T2, RARα (Homo sapiens, UniProt P10276); assay: Transactivation assay for RAR alpha (gal4-RAR fusion, luciferase reporter, COS-7 cells); conditions: for RARα activity ratio: ratio of test compound EC50 to that of atRA on the same plate; for RARα/RARβ ratio (*): fold-selectivity for RARα over RARβ
T2 construct: gal4 (fusion partner); expressed in transfected cells; host or cells: COS-7
T2 sequence (P10276 183-417 limits assumed): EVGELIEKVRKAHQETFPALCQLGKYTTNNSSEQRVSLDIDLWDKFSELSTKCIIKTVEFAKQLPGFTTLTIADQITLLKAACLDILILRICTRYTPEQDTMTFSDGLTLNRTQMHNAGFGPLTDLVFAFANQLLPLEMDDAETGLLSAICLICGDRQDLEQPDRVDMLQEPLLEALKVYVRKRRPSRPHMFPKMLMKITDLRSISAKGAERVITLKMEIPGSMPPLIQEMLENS
Procedure: as §1, §2, §3

[3] = molecular target: T3, RARγ (Homo sapiens, UniProt P13631); assay: Transactivation assay for RAR gamma (gal4-RAR fusion, luciferase reporter, COS-7 cells); conditions: ratio of test compound EC50 to that of atRA; inactive = no agonist action at the highest concentration tested
T3 construct: gal4 (fusion partner); expressed in transfected cells; host or cells: COS-7
T3 sequence (P13631 185-419 limits assumed): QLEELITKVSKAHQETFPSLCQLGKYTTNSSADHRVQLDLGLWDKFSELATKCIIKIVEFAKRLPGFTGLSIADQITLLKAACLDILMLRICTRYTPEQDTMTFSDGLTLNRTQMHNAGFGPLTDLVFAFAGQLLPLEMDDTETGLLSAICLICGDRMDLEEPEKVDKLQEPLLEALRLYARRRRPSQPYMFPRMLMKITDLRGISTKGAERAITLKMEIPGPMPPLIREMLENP
Procedure: as §1, §2, §3

Compound: CCOc1c(Cl)cc(C(=O)Nc2ccc(C(=O)O)c(C)c2)cc1OC(C)C [AAA-080, 4-(3-Chloro-4-ethoxy-5-isopropoxybenzamido)-2-methylbenzoic acid]
- RARβ activity ratio [1]: 318
- RARα activity ratio [2]: 1.6
- RARγ activity ratio [3]: 17460

Compound: Cc1cc(NC(=O)c2cc(Cl)c(Cl)c(OC(C)C)c2)ccc1C(=O)O [AAA-113, 4-(3,4-Dichloro-5-isopropoxybenzamido)-2-methylbenzoic acid]
- RARβ activity ratio [1]: 900
- RARα/RARβ ratio (*) [2]: 231
- RARα activity ratio [2]: 3.9
- RARγ activity ratio [3]: 11093

Compound: CCOc1cc(C(=O)Nc2ccc(C(=O)O)c(C)c2)cc(OC(CC)CC)c1Cl [AAA-115, 4-(4-Chloro-3-ethoxy-5-(pentan-3-yloxy)benzamido)-2-methylbenzoic acid]
- RARβ activity ratio [1]: 150
- RARα/RARβ ratio (*) [2]: 58
- RARα activity ratio [2]: 2.6
- RARγ activity ratio [3]: 25172

Compound: CCOc1c(Cl)cc(C(=O)Nc2ccc(C(=O)O)nn2)cc1OC(C)C [AAA-082, 6-(3-Chloro-4-ethoxy-5-isopropoxybenzamido)pyridazine-3-carboxylic acid]
- RARβ activity ratio [1]: 6885
- RARα/RARβ ratio (*) [2]: 275
- RARα activity ratio [2]: 25
- RARγ activity ratio [3]: >56000

Compound: COc1c(Cl)cc(C(=O)Nc2ccc(C(=O)O)c(C)c2)cc1C(F)(F)F [AAA-041, 4-(3-Chloro-4-methoxy-5-(trifluoromethyl)benzamido)-2-methylbenzoic acid]
- RARβ activity ratio [1]: 238
- RARα/RARβ ratio (*) [2]: 44
- RARα activity ratio [2]: 5.4
- RARγ activity ratio [3]: 31340

Compound: COc1c(Cl)cc(C(=O)Nc2ccc(C(=O)O)cc2)cc1C(F)(F)F [AAA-035, 4-(3-Chloro-4-methoxy-5-(trifluoromethyl)benzamido)benzoic acid]
- RARβ activity ratio [1]: 2620
- RARα/RARβ ratio (*) [2]: 8700
- RARα activity ratio [2]: 0.30
- RARγ activity ratio [3]: 87000

Compound: Cc1cc(NC(=O)c2cc(Cl)c(OC(C)C)c(OC(C)C)c2)ccc1C(=O)O [AAA-051, 4-(3-Chloro-4,5-diisopropoxybenzamido)-2-methylbenzoic acid]
- RARβ activity ratio [1]: 43
- RARα/RARβ ratio (*) [2]: 45
- RARα activity ratio [2]: 0.97
- RARγ activity ratio [3]: 2859

Compound: Cc1cc(NC(=O)c2cc(Br)c(OC(C)C)c(Br)c2)ccc1C(=O)O [AAA-052, 4-(3,5-Dibromo-4-isopropoxybenzamido)-2-methylbenzoic acid]
- RARβ activity ratio [1]: 21
- RARα/RARβ ratio (*) [2]: 84
- RARα activity ratio [2]: 0.25
- RARγ activity ratio [3]: 1923

Compound: Cc1cc(NC(=O)c2cc(F)c(OC(C)C)c(Cl)c2)ccc1C(=O)O [AAA-074, 4-(3-Chloro-5-fluoro-4-isopropoxybenzamido)-2-methylbenzoic acid]
- RARβ activity ratio [1]: 32400
- RARα/RARβ ratio (*) [2]: 210
- RARα activity ratio [2]: 154
- RARγ activity ratio [3]: 14500

Compound: O=C(O)c1ccc(NC(=O)c2cc(Cl)c(OC3CCCC3)c(C(F)(F)F)c2)cc1 [AAA-043, 4-(3-Chloro-4-(cyclopentyloxy)-5-(trifluoromethyl)benzamido)benzoic acid]
- RARβ activity ratio [1]: 53
- RARα/RARβ ratio (*) [2]: 27
- RARα activity ratio [2]: 2
- RARγ activity ratio [3]: 688

Compound: CCOc1c(Cl)cc(C(=O)Nc2ccc(C(=O)O)c(C)c2)cc1Cl [AAA-019, 4-(3,5-Dichloro-4-ethoxybenzamido)-2-methylbenzoic acid]
- RARβ activity ratio [1]: 74
- Improvement (RARα activity ratio) ([2]; compared with XXX-03): ~100-fold
- Improvement (RARα/RARβ ratio) ([2]; compared with XXX-03): ~12-fold
- RARγ activity ratio [3]: 136

Compound: CCOc1c(Cl)cc(NC(=O)c2ccc(C(=O)O)cn2)cc1Cl [AAA-020, 6-(3,5-Dichloro-4-ethoxyphenylcarbamoyl)nicotinic acid]
- RARβ activity ratio [1]: 214
- RARα/RARβ ratio (*) [2]: 2.0
- RARα activity ratio [2]: 108
- RARγ activity ratio [3]: inactive
